Results reported in PubChem BioAssay (NCI).
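Tested at 5 concentrations; 48 h exposure; 96-well plates; endpoints linearly interpolated, else capped at highest concentration. Here, GI50 denotes the concentration required for 50% inhibition of growth. TGI marks complete inhibition of growth.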

Key:
Assay in all cases: NCI-60 cell line screen, 48 h
786-0 renal = tested on: 786-0 renal
A498 renal = tested on: A498 renal
A549 NSCLC = tested on: A549 NSCLC
ACHN renal = tested on: ACHN renal
BT-549 breast = tested on: BT-549 breast
CAKI-1 renal = tested on: CAKI-1 renal
CCRF-CEM leukemia = tested on: CCRF-CEM leukemia
COLO 205 colon = tested on: COLO 205 colon
DU-145 prostate = tested on: DU-145 prostate
EKVX NSCLC = tested on: EKVX NSCLC
HCC-2998 colon = tested on: HCC-2998 colon
HCT-116 colon = tested on: HCT-116 colon
HCT-15 colon = tested on: HCT-15 colon
HL-60(TB) leukemia = tested on: HL-60(TB) leukemia
HOP-62 NSCLC = tested on: HOP-62 NSCLC
HOP-92 NSCLC = tested on: HOP-92 NSCLC
HS 578T breast = tested on: HS 578T breast
HT29 colon = tested on: HT29 colon
K-562 leukemia = tested on: K-562 leukemia
KM12 colon = tested on: KM12 colon
LOX IMVI melanoma = tested on: LOX IMVI melanoma
M14 melanoma = tested on: M14 melanoma
MALME-3M melanoma = tested on: MALME-3M melanoma
MCF7 breast = tested on: MCF7 breast
MDA-MB-231 breast = tested on: MDA-MB-231 breast
MOLT-4 leukemia = tested on: MOLT-4 leukemia
NCI-H226 lung = tested on: NCI-H226 lung
NCI-H23 lung = tested on: NCI-H23 lung

## COc1ccc(-c2oc(=O)ccc2-c2cc(OC)c(OC)c(OC)c2)cc1O
786-0 renal
  GI50: 2.62 µM
  TGI: > 75.7 µM
A498 renal
  GI50: 2.57 µM
  TGI: 28.1 µM
A549 NSCLC
  GI50: 3.41 µM
  TGI: > 100 µM
ACHN renal
  GI50: 5.05 µM
  TGI: > 95.2 µM
BT-549 breast
  GI50: 1.52 µM
  TGI: > 38.5 µM
CAKI-1 renal
  GI50: 3.08 µM
  TGI: > 80.8 µM
CCRF-CEM leukemia
  GI50: 2.07 µM
  TGI: 18.9 µM
COLO 205 colon
  GI50: 6.78 µM
  TGI: 36 µM
DU-145 prostate
  GI50: 2.05 µM
  TGI: > 100 µM
EKVX NSCLC
  GI50: 6.98 µM
  TGI: > 100 µM
HCC-2998 colon
  GI50: 1.8 µM
  TGI: 10.5 µM
HCT-116 colon
  GI50: 0.736 µM
  TGI: > 86.6 µM
HCT-15 colon
  GI50: 0.769 µM
  TGI: > 100 µM
HL-60(TB) leukemia
  GI50: 0.407 µM
  TGI: 2.03 µM
HOP-62 NSCLC
  GI50: 5.37 µM
  TGI: > 100 µM
HOP-92 NSCLC
  GI50: 8.61 µM
  TGI: > 80.4 µM
HS 578T breast
  GI50: 1.51 µM
  TGI: > 29.4 µM
HT29 colon
  GI50: 3.97 µM
  TGI: > 47.3 µM
K-562 leukemia
  GI50: 0.439 µM
  TGI: > 100 µM
KM12 colon
  GI50: 0.507 µM
  TGI: > 48.7 µM
LOX IMVI melanoma
  GI50: 1.65 µM
  TGI: 45.3 µM
M14 melanoma
  GI50: 0.833 µM
  TGI: 30.4 µM
MALME-3M melanoma
  TGI: > 100 µM
MCF7 breast
  GI50: 0.421 µM
  TGI: > 53.6 µM
MDA-MB-231 breast
  GI50: 2.8 µM
  TGI: > 100 µM
MOLT-4 leukemia
  GI50: 2.01 µM
  TGI: > 100 µM
NCI-H226 lung
  GI50: 9.81 µM
  TGI: > 96 µM
NCI-H23 lung
  GI50: 3.91 µM
  TGI: > 100 µM
